One compound from paper PMC8810462, “Targeted fluorescent imaging of a novel FITC-labeled PSMA ligand in prostate cancer” (Amino Acids, 2021) can be followed below.

One series has as its system PSMA(+) LNCaP cells. As to the kind of experiment: In vitro confocal fluorescence imaging, cell uptake. It is filed as cell-based, human. Here is the method: (§1) Both the LNCaP cells and PC3 cells were grown in a T25 cell culture flask (Corning Inc., Corning, NY, USA). The cultured LNCaP cells and PC3 cells were inoculated into a confocal dish and placed in an incubator at 37 °C/5% CO2 for 24 h. The medium was changed 2 h before the cell uptake experiment. The medium was removed, the flask rinsed once with PBS, and 5 μg of PSMA-FITC (100 μl) was added to each dish, which was then filled with medium to a final volume of 2 ml. The cells were incubated in an incubator for 60 min, washed 4 times with PBS buffer containing 0.2% BSA. Add 450 μl 4% paraformaldehyde to fix the cells for 10 min then rinse with PBS for four times. Cell nucleus were stained with 450 μl Hoechst33342 for 10 min and rinsed with PBS for four times. Add 500 μl PBS before observation. The cells were observed under confocal microscope (Olympus FV 1000) in dark room. In the blocking group, the LNCaP cells were pretreated with 2-PMPA (20 μg) for 30 min, and then PSMA-FITC was added and incubated for 60 min. The steps are the same as described above in the dark.

In another series the test system is PSMA(−) PC3 cells. Described as above. It is filed as cell-based, human. The settings on record: 5 μg PSMA-FITC, 37 °C, 60 min. Here is the method:
as §1

A further series has as its system PSMA (−) PC3 tumor. As to the kind of experiment: In vivo fluorescence imaging of tumor-bearing mice. Also noted: species or system BALB/c male nude mice. Particulars: 0.5 mg/kg tail vein, compared with 22Rv1 tumor-bearing mice. Here is the method:
(§2) All animal procedures were performed in accordance with the protocol approved by the Animal Care and Use Committee of the PLA General Hospital. BALB/c male nude mice (approximately 3–4 weeks old, with a body weight of 13–15 g) were purchased from Charles River Laboratories (Beijing, China). Then, 0.1 ml (approximately 5 × 10^6 cells) of 22Rv1 cell suspension was subcutaneously injected into the right shoulder of each mouse to form an 22Rv1 tumor xenograft. Vernier calipers were used to measure the length and shortest diameter of the tumor, and the tumor volume was estimated according to the formula (V = 1/2 × long diameter × shortest diameter^2). Fluorescence imaging was performed in vivo and in vitro when the tumor volume reached 200–300 mm^3. The PC3 cell planting method is the same as 22Rv1 cell planting method.
(§3) In vivo fluorescence imaging was performed using the French Biospace Lab in vivo optical imaging system, the PHOTON IMAGER OPTIMA multidimensional real-time awake animal in vivo optical imaging system software was used for analysis, and the FITC exclusive filter was used to collect the fluorescence of PSMA-FITC. All images were collected using the same parameters (lamp voltage, filter, exposure height, exposure time, and field of view). The collected images were processed in a unified manner, and the number of photons per second per centimeter squared per steradian (ph/s/cm^2/sr) was used for analysis. 22Rv1 tumor-bearing mice in the nonblocking group (n = 5) and PC3 tumor-bearing mice (n = 5) were injected with PSMA-FITC (0.5 mg/kg) through the tail vein, and fluorescence imaging was performed at different time points after injection. The 22Rv1 tumor-bearing mice (n = 5) in the blocking group were injected with a mixture of 2-PMPA (2 mg/kg) and PSMA-FITC (0.5 mg/kg), and fluorescence imaging was performed 60 min after the injection. Another 9 22Rv1 tumor-bearing mice were divided into three groups (3/group), PSMA-FITC (0.5 mg/kg) was injected into the tail vein, and the mice were euthanized 30, 60, or 120 min after injection. The tumors, tissues, and organs were dissected, and a fluorescence imaging system was used for in vitro imaging. The ROI was delineated, and the average fluorescence intensity reported.
(§4) All measured values are expressed as the means ± standard deviation. Independent sample t-test was used for statistical analysis, and P < 0.05 was considered statistically significant. To clarify tumor contrast, the region of interest (ROI) was delineated, and the mean fluorescence intensity of tumor tissue (T) and background (B) was collected. TBR was used to represent tumor-background contrast. Normal muscle tissue was selected as the background to outline.

In another series the test system is 22Rv1 tumor xenograft. As to the kind of experiment: In vivo fluorescence imaging of tumor-bearing mice. Also on record: species or system BALB/c male nude mice. The settings on record: for tumor-background ratio (TBR): 60 min after injection, n = 5. As to the method:
as §2, §3, §4

Series [1] in a line: Ex vivo fluorescence imaging of dissected tumors, tissues and organs (distribution). In kind it is in vivo, BALB/c male nude mice. The settings on record: 22Rv1 tumor-bearing mice, 0.5 mg/kg tail vein, 30, 60, 120 min. Here is the method: as §3
Series [2] can be described thus: Acute toxicity test (HE staining of organs). It is filed as in vivo, ICR male mice. The settings on record: 100 mg/kg tail vein, organs collected 7 days later. Here is the method:
ICR male mice (approximately 3–4 weeks old, with a body weight of 12–16 g) were injected with PSMA-FITC (100 mg/kg) through the tail vein, and organs were collected 7 days later. The organs were sectioned and stained with HE. The control group was injected with the same volume of normal saline. The steps are the same as described above.

The mark [3] stands for this setting: 0.5 mg/kg tail vein, 22Rv1 tumor-bearing mice.

For `O=C(O)CCC(NC(=O)NC(CCCCNC(=O)CCCCCNC(=S)Nc1ccc2c(c1)C(=O)OC21c2ccc(O)cc2Oc2cc(O)ccc21)C(=O)O)C(=O)O` (stereo not drawn) [PSMA-FITC], the “fluorescence signal in cells (confocal microscopy)” value in the series with PSMA(+) LNCaP cells (LNCaP cells pretreated with 2-PMPA (20 μg) for 30 min, then PSMA-FITC 60 min) was “negligible fluorescence signaling”; with PSMA(+) LNCaP cells (LNCaP cells, 5 μg PSMA-FITC, 37 °C, 60 min, no blocking), “Significant fluorescence signals”; in the series with PSMA(−) PC3 cells it was “negligible fluorescence signaling”. In the series with PSMA (−) PC3 tumor, the “tumor uptake of the probe” value is listed as “significantly lower than that of 22Rv1 tumor-bearing mice”. Besides, the “time of highest tumor-background contrast after injection” value with 22Rv1 tumor xenograft (setting [3]) was 60 min. Also, the “time to tumor targeting after injection” value in the series with 22Rv1 tumor xenograft (setting [3]) was ≤ 30 min. For the same compound, the “tumor-background ratio (TBR)” value amounted to 0.44 ± 0.13 in the series on 22Rv1 tumor xenograft (blocking group, coinjection of 2-PMPA 2 mg/kg with PSMA-FITC 0.5 mg/kg) and 3.45 ± 0.31 in the series with 22Rv1 tumor xenograft (nonblocking group, PSMA-FITC 0.5 mg/kg tail vein). Besides, the “fluorescence intensity of liver and small intestine (ex vivo)” value in series [1] was “strong fluorescence intensity”. Also, the “fluorescence intensity of the bladder (ex vivo)” value in series [1] was “obviously at a high level”. Also, the “uptake by the kidney (ex vivo fluorescence)” value in series [1] is reported as “higher than that measured in other normal organs”. Moreover, the “organ damage (histopathology, HE staining)” value in series [2] was “not damaged”.
